Measured values: patent US20250268894A1, “MACROCYCLE COMPOUNDS FOR THE TREATMENT OF CANCER” (Hoffmann-La Roche Inc., priority 2022, published 2025)

Columns and labels:
[1] = tested on: phosphorylation of ERK, KRAS G12C in NCI-H358 cells; assay: pERK inhibition assay, KRAS G12C in NCI-H358 cells; assay type: cell-based, human; conditions: Homo sapiens, NCI-H358, 4 hours
Method: (§1) This assay is to measure the ability of test compounds in inhibiting the phosphorylation of ERK, the downstream signaling of KRAS G12C in NCI-H358 cells, KRAS G12D in AGS cells, and KRAS G12V in SW620. NCI-H358 (ATCC-CRL5807) cells, AGS (ATCC-CRL-1739) cells, SW620 (ATCC-CCL-227) cells were all grown and maintained using RPMI-1640 medium (Thermo Fisher Scientific) with 10% fetal bovine serum and 1% penicillin/streptomycin. On the day prior to compound addition, cells were plated in tissue culture-treated 96 well plates (Corning-3699) at a density of 30,000 cell/well, 20,000 cell/well, 30,000 cell/well for NCI-H358, AGS and SW620 respectively, and allowed for attachment overnight. Diluted compounds were then added in a final concentration of 0.5% DMSO. After 4 hours of incubation, the medium was removed, 100 μL of 4% formaldehyde was added, and the assay plates were incubated at room temperature for 20 minutes. The plates were then washed once with phosphate buffered saline (PBS), and permeabilized with 100 μL of chilled methanol for 10 minutes. Non-specific antibody binding to the plates was blocked using 50 μL 1X BSA blocking buffer (Thermo-37520, 10-fold dilution by Phosphate-Buffered Saline Tween (PBST) for at least 1 hour at room temperature.
(§2) The amount of phosphor-ERK was determined using an antibody specific for phosphorylated form of ERK. Primary antibody (PERK, CST-4370, Cell Signaling Technology) was diluted 1:300 in blocking buffer, with 50 μL aliquoted to each well, and incubated overnight at 4° C. Cells was washed five times for 5 minutes with PBST. Secondary antibody (HRP-linked anti-rabbit IgG, CST-7074, Cell Signaling Technology) was diluted 1:1000 in blocking buffer, and 50 μL was added to each well and incubated 1-2 hrs at room temperature. Cells was washed […] for 5 minutes with PBST, 100 μL TMB ELISA substrate (abcam-ab171523) were added and gently shake for 20 minutes. 50 μL stop solution (abcam-ab171529) were added, and then read the signal (OD450) by EnVision.
(§3) IC50 was determined by fitting a 4-parameter sigmoidal concentration response model.

[2] = tested on: NCI-H358 cells (KRAS G12C); assay: Cell viability assay (Cell Counting Kit-8), KRAS G12C; assay type: cell-based; conditions: Homo sapiens, NCI-H358, 72 hrs
Method: (§4) The purpose of this cellular assay was to determine the effects of test compounds on the proliferation of human cancer cell lines NCI-H358 (ATCC-CRL5807) cells, AGS (ATCC-CRL-1739) cells, SW620 (ATCC-CCL-227) over a 3-day treatment period by quantifying the amount of NADPH present at endpoint using Cell Counting Kit-8.
(§5) Cells were seeded at 5,000 cells/well (NCI-H358), 2,000 cells/well (AGS)2,000 cells/well (SW620) in 96-well assay plates (Corning-3699) and incubated overnight. On the day of the assay, diluted compounds were then added in a final concentration of 0.5% DMSO. After 72 hrs incubation, a tenth of the volume of cell counting kit 8 (Dnjindo-CK04) was added into each well. Read the signal (OD450 minus OD650) using EnVision after 2 hrs incubation. IC50 was determined by fitting a 4-parameter sigmoidal concentration response model.

[3] = tested on: phosphorylation of ERK, KRAS G12V in SW620 cells; assay: pERK inhibition assay, KRAS G12V in SW620; assay type: cell-based, human; conditions: Homo sapiens, SW-620, SW620, 4 hours
Method: as §1, §2, §3

KRAS G12D-BRAF complex = KRAS G12D-BRAF complex (Homo sapiens (Human), UniProt P01116+P62937, G12D); assay: KRAS-BRAF with CYPA (500 nM) interaction assay (TR-FRET), G12D; assay type: biochemical
Sequence of KRAS G12D-BRAF complex (P01116-2 other isoform, or with tags, fused parts or gaps G12D): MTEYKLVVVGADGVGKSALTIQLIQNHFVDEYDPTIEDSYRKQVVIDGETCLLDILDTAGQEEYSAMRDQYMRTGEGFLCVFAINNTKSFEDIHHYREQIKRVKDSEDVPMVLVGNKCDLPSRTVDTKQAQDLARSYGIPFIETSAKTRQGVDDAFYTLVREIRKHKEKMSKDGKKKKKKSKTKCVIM
Sequence of KRAS G12D-BRAF complex (P62937 whole entry): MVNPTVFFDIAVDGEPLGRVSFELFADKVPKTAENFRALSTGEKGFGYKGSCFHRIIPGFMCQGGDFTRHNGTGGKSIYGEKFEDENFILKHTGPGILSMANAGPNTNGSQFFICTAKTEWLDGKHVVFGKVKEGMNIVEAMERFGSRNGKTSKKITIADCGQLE
Method: (§6) Kras-BRAF with CYPA (500 nM) Interaction Assay In this example, TR-FRET was also used to measure the compound or compound-CYPA dependent disruption of the KRAS G12C-BRAF complex. This protocol was also used to measure disruption of KRAS G12D or KRAS G12V binding to BRAF by a compound of the invention, respectively. […] Compound was present in plate wells as a 16-point 3-fold dilution series starting at a final concentration of 10 μM and incubated for 3 hours. […] TR-FRET signal was read on a […] microplate reader (Ex320 nm, Em 665/615 nm). Compounds that facilitate disruption of the KRAS-BRAF complex were identified as those eliciting a decrease in the TR-FRET ratio relative to DMSO control wells.

KRAS G12C-BRAF complex = KRAS G12C-BRAF complex (Homo sapiens (Human), UniProt P01116+P62937, G12C); assay: KRAS-BRAF with CYPA (500 nM) interaction assay (TR-FRET), G12C; assay type: biochemical
Sequence of KRAS G12C-BRAF complex (P01116-2 other isoform, or with tags, fused parts or gaps G12C): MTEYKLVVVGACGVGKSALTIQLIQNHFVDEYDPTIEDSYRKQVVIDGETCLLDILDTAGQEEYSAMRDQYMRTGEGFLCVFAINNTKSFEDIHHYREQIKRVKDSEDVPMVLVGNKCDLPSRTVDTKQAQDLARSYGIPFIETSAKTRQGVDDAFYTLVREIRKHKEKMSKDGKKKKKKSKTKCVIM
Sequence of KRAS G12C-BRAF complex (P62937 whole entry): as the sequence (P62937 whole entry) above
Method: as §6

AGS cells (KRAS G12D) = assay: Cell viability assay (Cell Counting Kit-8), KRAS G12D; assay type: cell-based; conditions: Homo sapiens, 72 hrs
Method: as §4, §5

SW620 cells (KRAS G12V) = assay: Cell viability assay (Cell Counting Kit-8), KRAS G12V; assay type: cell-based; conditions: Homo sapiens, SW-620, SW620, 72 hrs
Method: as §4, §5

KRAS G12V-BRAF complex = KRAS G12V-BRAF complex (Homo sapiens (Human), UniProt P01116+P62937, G12V); assay: KRAS-BRAF with CYPA (500 nM) interaction assay (TR-FRET), G12V; assay type: biochemical
Sequence of KRAS G12V-BRAF complex (P01116-2 other isoform, or with tags, fused parts or gaps G12V): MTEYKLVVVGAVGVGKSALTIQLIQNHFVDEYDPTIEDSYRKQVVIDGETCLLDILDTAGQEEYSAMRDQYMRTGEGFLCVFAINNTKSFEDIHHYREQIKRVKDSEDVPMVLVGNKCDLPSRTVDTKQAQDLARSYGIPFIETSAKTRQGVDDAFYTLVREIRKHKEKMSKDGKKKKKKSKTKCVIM
Sequence of KRAS G12V-BRAF complex (P62937 whole entry): as the sequence (P62937 whole entry) above
Method: as §6

[4] = tested on: phosphorylation of ERK, KRAS G12D in AGS cells; assay: pERK inhibition assay, KRAS G12D in AGS cells; assay type: cell-based, human; conditions: Homo sapiens, 4 hours
Method: as §1, §2, §3

SMILES	IC50 [1] [nM]	IC50 [2] [nM]	IC50 [3] [nM]	IC50 (KRAS G12D-BRAF complex) [nM]	IC50 (KRAS G12C-BRAF complex) [nM]	IC50 (AGS cells (KRAS G12D)) [nM]	IC50 (SW620 cells (KRAS G12V)) [nM]	IC50 (KRAS G12V-BRAF complex) [nM]	IC50 [4] [nM]
CCn1c(-c2cc(N3CCN(CC(F)(F)F)CC3)cnc2[C@H](C)OC)c2c3cc(c(F)cc31)-c1csc(n1)C[C@H](NC(=O)[C@H](C(C)C)N(C)C(=O)N1CCOCC1)C(=O)N1CCC[C@H](N1)C(=O)OCC(C)(C)C2 (atropisomer, axis not shown; (M)) [Example 9, N-[(1S)-1-[[(7S,13S)-21-ethyl-24-fluoro-(20M)-20-[2-[(1S)-1-methoxyethyl]-5-[4-(2,2,2-trifluoroethyl)piperazin-1-yl]-3-pyridyl]-17,17-dimethyl-8,14-dioxo-15-oxa-4-thia-9,21,27,28-tetrazapentacyclo[17.5.2.1^2,5.1^9,13.0^22,26]octacosa-1 (25),2,5 (28),19,22 (26),23-hexaen-7-yl]carbamoyl]-2-methyl-propyl]-N-methyl-morpholine-4-carboxamide]	24	24	9	225	49	91	14	124	23
CO[C@@H](C)c1ncc(N2CCN(C)CC2)cc1-c1c2c3cc(c(F)cc3n1CC(F)(F)F)-c1csc(n1)C[C@H](NC(=O)[C@H](C(C)C)N(C)C(=O)N1CC(N(C)C)C1)C(=O)N1CCC[C@H](N1)C(=O)OCC(C)(C)C2 (atropisomer, axis not shown; (M)) [Example 1, 3-(dimethylamino)-N-[(1S)-1-[[(7S,13S)-24-fluoro-(20M)-20-[2-[(1S)-1-methoxyethyl]-5-(4-methylpiperazin-1-yl)-3-pyridyl]-17,17-dimethyl-8,14-dioxo-21-(2,2,2-trifluoroethyl)-15-oxa-4-thia-9,21,27,28-tetrazapentacyclo[17.5.2.1^2,5.1^9,13.0^22,26]octacosa-1(25),2,5 (28),19,22 (26),23-hexaen-7-yl]carbamoyl]-2-methyl-propyl]-N-methyl-azetidine-1-carboxamide]	1	2	1	147	46	13	1	70	2
CO[C@@H](C)c1ncc(N2CCOCC2)cc1-c1c2c3cc(c(F)cc3n1CC(F)(F)F)-c1csc(n1)C[C@H](NC(=O)[C@H](C(C)C)N(C)C(=O)N1CCOCC1)C(=O)N1CCC[C@H](N1)C(=O)OCC(C)(C)C2 (atropisomer, axis not shown; (M)) [Example 11, N-[(1S)-1-[[(7S,13S)-24-fluoro-20-(20M)-[2-[(1S)-1-methoxyethyl]-5-morpholino-3-pyridyl]-17,17-dimethyl-8,14-dioxo-21-(2,2,2-trifluoroethyl)-15-oxa-4-thia-9,21,27,28-tetrazapentacyclo[17.5.2.1^2,5.1^9,13.0^22,26]octacosa-1(25),2,5(28),19,22(26),23-hexaen-7-yl]carbamoyl]-2-methyl-propyl]-N-methyl-morpholine-4-carboxamide]	3	2	1	112	24	6	1	59	1
CCn1c(-c2cc(N3CCN(C)CC3)cnc2[C@H](C)OC)c2c3cc(c(F)cc31)-c1csc(n1)C[C@H](NC(=O)[C@H](C(C)C)N(C)C(=O)N1CCOCC1)C(=O)N1CCC[C@H](N1)C(=O)OCC(C)(C)C2 (atropisomer, axis not shown; (M)) [Example 10, N-[(1S)-1-[[(7S,13S)-21-ethyl-24-fluoro-(20M)-20-[2-[(1S)-1-methoxyethyl]-5-(4-methylpiperazin-1-yl)-3-pyridyl]-17,17-dimethyl-8,14-dioxo-15-oxa-4-thia-9,21,27,28-tetrazapentacyclo[17.5.2.1^2,5.1^9,13.0^22,26]octacosa-1 (25),2,5 (28),19,22 (26),23-hexaen-7-yl]carbamoyl]-2-methyl-propyl]-N-methyl-morpholine-4-carboxamide]	14	6	6	186	61	40	6	149	8
CCn1c(-c2cc(N3CCOCC3)cnc2[C@H](C)OC)c2c3cc(c(F)cc31)-c1csc(n1)C[C@H](NC(=O)[C@H](C(C)C)N(C)C(=O)N1CC(C(F)(F)F)C1)C(=O)N1CCC[C@H](N1)C(=O)OCC(C)(C)C2 (atropisomer, axis not shown; (M)) [Example 14, N-[(1S)-1-[[(7S,13S)-21-ethyl-24-fluoro-(20M)-20-[2-[(1S)-1-methoxyethyl]-5-morpholino-3-pyridyl]-17,17-dimethyl-8,14-dioxo-15-oxa-4-thia-9,21,27,28-tetrazapentacyclo[17.5.2.1^2,5.1^9,13.0^22,26]octacosa-1 (25),2,5 (28),19,22 (26),23-hexaen-7-yl]carbamoyl]-2-methyl-propyl]-N-methyl-3-(trifluoromethyl) azetidine-1-carboxamide]	28	100	12	> 10000	> 10000	> 10000	73	> 10000	32
CO[C@@H](C)c1ncc(N2CCN(CC(F)(F)F)CC2)cc1-c1c2c3cc(c(F)cc3n1CC(F)(F)F)-c1csc(n1)C[C@H](NC(=O)[C@H](C(C)C)N(C)C(=O)N1CC(N(C)C)C1)C(=O)N1CCC[C@H](N1)C(=O)OCC(C)(C)C2 (atropisomer, axis not shown; (M)) [Example 12, 3-(dimethylamino)-N-[(1S)-1-[[(7S,13S)-24-fluoro-(20M)-20-[2-[(1S)-1-methoxyethyl]-5-[4-(2,2,2-trifluoroethyl)piperazin-1-yl]-3-pyridyl]-17,17-dimethyl-8,14-dioxo-21-(2,2,2-trifluoroethyl)-15-oxa-4-thia-9,21,27,28-tetrazapentacyclo[17.5.2.1^2,5.1^9,13.0^22,26]octacosa-1 (25),2,5 (28),19,22 (26),23-hexaen-7-yl]carbamoyl]-2-methyl-propyl]-N-methyl-azetidine-1-carboxamide]	6	9	4	140	29	38	7	85	15
